Measurements from patent US20160052898A1, “NOVEL COMPOUNDS” (BAYER PHARMA AKTIENGESELLSCHAFT, priority 2013, published 2016).
pIC50: −log10 of the molar value.

Tests used:
Type in all cases: cell-based
[1] = system: HEK293 FOP control reporter cell line; assay: HEK293 FOP control vector reporter assay; details: Homo sapiens; HEK293 FOP control reporter cells, EC50 concentration of recombinant Wnt-3a, 16 hours incubation; read-out: HEK FOP IC50
Procedure: (§1) In order to determine the inhibitory activity of compounds for the WT Wnt signaling pathway, the Super TopFlash vector respectively FOP vector were cotransfected with pcDNA3 into HEK293 and stable transfected HEK293 cells were isolated by antibiotic selection. […] The recombinant human Wnt-3a was thereby used between 2500 and 5 ng/ml in two-fold dilution steps. […] Measurement of luciferase expression was done as described for the constitutive active Wnt assay.
In a parallel approach, HEK293 cells were cotransfected with the FOP control vector and pcDNA3. The FOP vector is identical to the TOP construct, but it contains instead of functional TCF elements a randomized, non-functional sequence. For this transfection a stable transfected cell line was generated as well, based on selection with Geneticin (1 mg/ml).
(§2) In preparation of the assay, the two cell lines were plated 24 hours before beginning the test at 10000 cells per well in a 384 micro titre plate (MTP) in […] growth medium. […] The recombinant human Wnt-3a was thereby applied between 2500 and 5 ng/ml in two-fold dilution steps. Selective inhibitory activity for small molecules on the wildtype Wnt pathway was determined after parallel incubation of both (TOP and FOP) HEK293 reporter cell lines with a compound dilution series from 50 μM to 15 nM in steps of 3.16-fold dilutions in CAFTY buffer (130 mM NaCl, 5 mM KCl, 20 mM HEPES, 1 mM MgCl2, 5 mM NaHCO3, pH 7.4) containing 2 mM Ca^2+ and 0.01% BSA.
(§3) The compounds were thereby serially prediluted in 100% DMSO and thereafter 50 fold into the CAFTY compound dilution buffer (described above).

[2] = system: constitutive active colorectal cancer cell (CRC) Wnt pathway; assay: HCT116 Super TopFlash cellular reporter assay (constitutive active Wnt pathway); details: Homo sapiens, HCT-116, 36 h, HCT116 TOP reporter cells, luciferase expression, 36 hours incubation, 50 μM to 15 nM
Procedure, shortened: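 HCT116 cells (β-catenin ΔS45) stably carrying Super TopFlash, with a parallel FOP-control line, were plated 24 h ahead. They were exposed 36 h at 37 °C, 5% CO2 to compound from a 50 μM–15 nM, 3.16-fold pre-dilution series in CAFTY buffer (pH 7.4, 2 mM Ca2+, 0.01% BSA). Wnt signalling was read as luciferase luminescence.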

wildtype Wnt pathway = assay: HEK293 Super TopFlash cellular reporter assay, Wnt-3a stimulated (wildtype Wnt pathway); details: Homo sapiens; HEK293 TOP reporter cells, EC50 concentration of recombinant Wnt-3a, 16 hours incubation; read-out: HEK TOP OncoFlash IC50
Procedure: as §1
In order to discover and characterize small molecules which inhibit the wildtype Wnt pathway, a cellular reporter assay was employed. The corresponding assay cell was generated by transfection of the mammalian cell line HEK293 (ATCC, #CRL-1573) with the Super TopFlash vector (Morin, Science 275, 1997, 1787-1790; Molenaar et al., Cell 86 (3), 1996, 391-399). The HEK293 cell line is cultivated at 37° C. and 5% CO2 in DMEM (Life Technologies, #41965-039), supplemented with 2 mM glutamine, 20 mM HEPES, 1.4 mM pyruvate, 0.15% Na-bicarbonate and 10% foetal bovine serum (GIBCO, #10270). Stable transfectants were generated by selection with 300 μg/ml Hygromycin.
as §2, §3

[3] = system: HCT116 FOP control reporter cell line; assay: HCT116 FOP control vector reporter assay (non-functional TCF elements); details: Homo sapiens, HCT-116, 36 h, HCT116 FOP control reporter cells, luciferase expression, 36 hours incubation, 50 μM to 15 nM; read-out: HCT116 FOPFlash IC50
Procedure, shortened: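 Stable HCT116 line carrying the non-functional FOP luciferase construct, 10000 cells/well plated 24 hrs before. Compounds 50 μM to 15 nM (3.16-fold steps) in CAFTY buffer pH 7.4 with 2 mM Ca2+, 36 hours at 37° C; luciferase luminescence read.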

Row | Structure (SMILES) | pIC50 [1] | pIC50 [2] | pIC50 (wildtype Wnt pathway) | pIC50 [3]
1 | C[C@@H](C(=O)Nc1cc(NC(=O)c2ccc(-c3ccccc3)cc2)ccc1F)N1CCOCC1 [Example 30, N-(4-fluoro-3-{[(2S)-2-(morpholin-4-yl)propanoyl]amino}phenyl)biphenyl-4-carboxamide] | 5.04 | 5.79 | 6.04 | ≤ 4.30
2 | COc1ccc(NC(=O)c2ccc(-c3ccccc3)cc2)cc1NC(=O)CN1CC2CCC(C1)O2 [Example 32, N-{4-methoxy-3-[(8-oxa-3-azabicyclo[3.2.1]oct-3-ylacetyl)amino]phenyl}biphenyl-4-carboxamide] | 4.77 | 6.77 | 6.28 | ≤ 4.30
3 | COc1ccc(NC(=O)c2ccc(-c3ccccc3)cc2)cc1NC(=O)CN1C[C@@H]2C[C@H]1CO2 [Example 33, N-(4-methoxy-3-{[(1S,4S)-2-oxa-5-azabicyclo[2.2.1]hept-5-ylacetyl]amino}phenyl)biphenyl-4-carboxamide] | 5.05 | 6.36 | 6.40 | ≤ 4.30
4 | COc1ccc(NC(=O)c2ccc(-c3ccccc3)cc2)cc1NC(=O)CN1CCN(C2CC2)CC1 [Example 35, N-(3-{[(4-cyclopropylpiperazin-1-yl)acetyl]amino}-4-methoxyphenyl)biphenyl-4-carboxamide] | 4.54 | 5.93 | 6.04 | ≤ 4.30
5 | COc1ccc(NC(=O)c2ccc(-c3ccccc3)cc2)cc1NC(=O)CN1CCCOCC1 [Example 36, N-{4-methoxy-3-[(1,4-oxazepan-4-ylacetyl)amino]phenyl}biphenyl-4-carboxamide] | 5.00 | 5.81 | 6.09 | ≤ 4.30
6 | COc1ccc(NC(=O)c2ccc(-c3ccccc3)cc2)cc1NC(=O)CN1CCSCC1 [Example 37, N-{4-methoxy-3-[(thiomorpholin-4-ylacetyl)amino]phenyl}biphenyl-4-carboxamide] | ≤ 4.30 | 5.90 | 6.19 | ≤ 4.30
7 | COc1ccc(NC(=O)c2ccc(-c3ccccc3)cc2)cc1NC(=O)CN1CCC(OC)CC1 [Example 39, N-(4-methoxy-3-{[(4-methoxypiperidin-1-yl)acetyl]amino}phenyl)biphenyl-4-carboxamide] | ≤ 4.30 | 5.66 | 5.96 | ≤ 4.30
8 | COc1ccc(NC(=O)c2ccc(-c3ccccc3)cc2)cc1NC(=O)CN1CCC[C@H](O)C1 [Example 40, N-[3-({[(3S)-3-hydroxypiperidin-1-yl]acetyl}amino)-4-methoxyphenyl]biphenyl-4-carboxamide] | 4.92 | 5.64 | 7.34 | ≤ 4.30
9 | COc1ccc(NC(=O)c2ccc(-c3ccccc3)cc2)cc1NC(=O)CN1CCOC(C)(C)C1 [Example 41, N-(3-{[(2,2-dimethylmorpholin-4-yl)acetyl]amino}-4-methoxyphenyl)biphenyl-4-carboxamide] | ≤ 4.30 | 5.62 | 6.15 | ≤ 4.30
10 | COc1ccc(NC(=O)c2ccc(-c3ccccc3)cc2)cc1NC(=O)CN1CC[C@@H](O)C1 [Example 43, N-[3-({[(3R)-3-hydroxypyrrolidin-1-yl]acetyl}amino)-4-methoxyphenyl]biphenyl-4-carboxamide] | ≤ 4.30 | 5.58 | 5.92 | ≤ 4.30
11 | COc1ccc(NC(=O)c2ccc(-c3ccccc3)cc2)cc1NC(=O)CN1CCOC[C@@H]1C [Example 48, N-[4-methoxy-3-({[(3S)-3-methylmorpholin-4-yl]acetyl}amino)phenyl]biphenyl-4-carboxamide] | ≤ 4.30 | 6.07 | 5.55 | 4.92
12 | COc1ccc(NC(=O)c2ccc(-c3ccccc3)cc2)cc1NC(=O)C(C)N1CCOCC1 (stereo not drawn) [Example 53, N-(4-methoxy-3-{[2-(morpholin-4-yl)propanoyl]amino}phenyl)biphenyl-4-carboxamide] | 5.21 | 6.32 | 6.54 | ≤ 4.30
